Several values for one entry are separate records, joined by “and”; a condition that tells them apart may be missing. Equal values may be shown once. Inconclusive results and toxic doses are left out.
Test system: CD2F1 mice, L1210 leukemia ip, survival T/C
Assay: NCI In Vivo Anticancer Drug Screen. Data for tumor model L1210 Leukemia (intraperitoneal) in CD2F1 (CDF1) mice
Details: higher = longer survival
Summary of the method: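 Tumor-bearing mice (transplanted tumor) were split into treated and vehicle control groups, and the measured endpoint of each treated group was divided by that of its vehicle controls.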

[1] = endpoint: mean survival time, dose: 100.0 mg/kg/injection, schedule: Q04DX002 (ip), vehicle: saline with Tween-80
[2] = endpoint: mean survival time, dose: 200.0 mg/kg/injection, schedule: Q04DX002 (ip), vehicle: saline with Tween-80
[3] = endpoint: mean survival time, dose: 400.0 mg/kg/injection, schedule: Q04DX002 (ip), vehicle: saline with Tween-80
[4] = endpoint: mean survival time, dose: 100.0 mg/kg/injection, schedule: Q01DX009 (ip), vehicle: saline
[5] = endpoint: mean survival time, dose: 100.0 mg/kg/injection, schedule: Q04DX003 (ip), vehicle: saline
[6] = endpoint: mean survival time, dose: 200.0 mg/kg/injection, schedule: Q01DX009 (ip), vehicle: saline
[7] = endpoint: mean survival time, dose: 200.0 mg/kg/injection, schedule: Q04DX003 (ip), vehicle: saline
[8] = endpoint: mean survival time, dose: 400.0 mg/kg/injection, schedule: Q01DX009 (ip), vehicle: saline
[9] = endpoint: mean survival time, dose: 400.0 mg/kg/injection, schedule: Q04DX003 (ip), vehicle: saline
[10] = endpoint: mean survival time, dose: 75.0 mg/kg/injection, schedule: Q01DX001 (ip), vehicle: saline
[11] = endpoint: mean survival time, dose: 25.0 mg/kg/injection, schedule: Q01DX009 (ip), vehicle: saline
[12] = endpoint: mean survival time, dose: 50.0 mg/kg/injection, schedule: Q01DX009 (ip), vehicle: saline
[13] = endpoint: mean survival time, dose: 25.0 mg/kg/injection, schedule: Q01DX005 (ip), vehicle: distilled water + Tween-80
[14] = endpoint: mean survival time, dose: 50.0 mg/kg/injection, schedule: Q01DX005 (ip), vehicle: distilled water + Tween-80
[15] = endpoint: mean survival time, dose: 100.0 mg/kg/injection, schedule: Q01DX005 (ip), vehicle: distilled water + Tween-80
[16] = endpoint: mean survival time, dose: 200.0 mg/kg/injection, schedule: Q01DX005 (ip), vehicle: distilled water + Tween-80
[17] = endpoint: mean survival time, dose: 100.0 mg/kg/injection, schedule: Q04DX003 (ip), vehicle: saline with Tween-80
[18] = endpoint: mean survival time, dose: 200.0 mg/kg/injection, schedule: Q04DX003 (ip), vehicle: saline with Tween-80
[19] = endpoint: mean survival time, dose: 100.0 mg/kg/injection, schedule: Q01DX009 (ip), vehicle: saline with Tween-80
[20] = endpoint: mean survival time, dose: 200.0 mg/kg/injection, schedule: Q01DX009 (ip), vehicle: saline with Tween-80
[21] = endpoint: mean survival time, dose: 400.0 mg/kg/injection, schedule: Q01DX009 (ip), vehicle: saline with Tween-80
[22] = endpoint: mean survival time, dose: 12.5 mg/kg/injection, schedule: Q01DX009 (ip), vehicle: water
[23] = endpoint: mean survival time, dose: 25.0 mg/kg/injection, schedule: Q01DX009 (ip), vehicle: water
[24] = endpoint: mean survival time, dose: 50.0 mg/kg/injection, schedule: Q01DX009 (ip), vehicle: water
[25] = endpoint: mean survival time, dose: 100.0 mg/kg/injection, schedule: Q01DX009 (ip), vehicle: other

## CCOC(=O)C1=C2CC(C)(C)CCC2(C)CCC1=O (configuration not stated)
[1]
  T/C: 100 % of control
[2]
  T/C: 100 % of control
[3]
  T/C: 88 % of control

## c1nc[nH]n1
[4]
  T/C: 98 % of control
[5]
  T/C: 95 % of control
[6]
  T/C: 98 % of control
[7]
  T/C: 97 % of control
[8]
  T/C: 93 % of control
[9]
  T/C: 100 % of control

## CCN1CCC2OCOC2C1 (configuration not stated)
[10]
  T/C: 102 % of control
endpoint: mean survival time, dose: 150.0 mg/kg/injection, schedule: Q01DX001 (ip), vehicle: saline
  T/C: 102 % of control

## CNC1(Cc2ccc(F)cc2)CCC1
[11]
  T/C: 100 % of control
[12]
  T/C: 102 % of control
[4]
  T/C: 100 % of control

## COc1ccc(OCCC(=O)O)cc1
[12]
  T/C: 119 % of control
[4]
  T/C: 105 % of control
[6]
  T/C: 105 % of control

## CNC(=S)N(/N=C/c1cc(Cl)cc(Cl)c1O)c1ccccc1
endpoint: mean survival time, dose: 100.0 mg/kg/injection, schedule: Q01DX001 (ip), vehicle: saline with Tween-80
  T/C: 87 % of control
endpoint: mean survival time, dose: 200.0 mg/kg/injection, schedule: Q01DX001 (ip), vehicle: saline with Tween-80
  T/C: 87 % of control
endpoint: mean survival time, dose: 400.0 mg/kg/injection, schedule: Q01DX001 (ip), vehicle: saline with Tween-80
  T/C: 91 % of control

## CNc1nc2c(N)ncnc2n1C1OC(CO)C(O)C1O (configuration not stated)
endpoint: mean survival time, dose: 3.12 mg/kg/injection, schedule: Q01DX009 (ip), vehicle: saline
  T/C: 95 % of control
endpoint: mean survival time, dose: 6.25 mg/kg/injection, schedule: Q01DX009 (ip), vehicle: saline
  T/C: 106 % of control
endpoint: mean survival time, dose: 12.5 mg/kg/injection, schedule: Q01DX009 (ip), vehicle: saline
  T/C: 106 % of control and 107 % of control
endpoint: mean survival time, dose: 12.5 mg/kg/injection, schedule: Q04DX002 (ip), vehicle: saline
  T/C: 98 % of control
[13]
  T/C: 96 % of control
[11]
  T/C: 115 % of control and 101 % of control
endpoint: mean survival time, dose: 25.0 mg/kg/injection, schedule: Q04DX002 (ip), vehicle: saline
  T/C: 102 % of control
[14]
  T/C: 103 % of control
[12]
  T/C: 102 % of control
endpoint: mean survival time, dose: 50.0 mg/kg/injection, schedule: Q04DX002 (ip), vehicle: saline
  T/C: 112 % of control
[15]
  T/C: 100 % of control
[4]
  T/C: 108 % of control
[16]
  T/C: 96 % of control
endpoint: mean survival time, dose: 400.0 mg/kg/injection, schedule: Q01DX005 (ip), vehicle: distilled water + Tween-80
  T/C: 101 % of control

## O=S(=O)(O)c1cncc(S(=O)(=O)O)n1
[4]
  T/C: 90 % of control
[5]
  T/C: 100 % of control
[6]
  T/C: 97 % of control
[7]
  T/C: 98 % of control
[8]
  T/C: 100 % of control
[9]
  T/C: 93 % of control

## C/C=C/CNc1ccccc1
[12]
  T/C: 102 % of control
[4]
  T/C: 101 % of control
[17]
  T/C: 95 % of control
[6]
  T/C: 96 % of control
[18]
  T/C: 97 % of control

## CN(Cc1cnc2nc(N)nc(N)c2n1)c1ccc(C(=O)NC(CCC(=O)NC(CC(=O)O)C(=O)O)C(=O)O)cc1 (configuration not stated)
endpoint: mean survival time, dose: 5.0 mg/kg/injection, schedule: Q01DX009 (ip), vehicle: sodium bicarbonate
  T/C: 165 % of control
endpoint: mean survival time, dose: 10.0 mg/kg/injection, schedule: Q01DX009 (ip), vehicle: sodium bicarbonate
  T/C: 151 % of control

## O=[N+]([O-])c1ccc2nc3c(nc2c1)-c1cccc2cccc-3c12
[19]
  T/C: 98 % of control
[20]
  T/C: 98 % of control
[21]
  T/C: 98 % of control

## O=C(O)C(=O)O.O=C(O)C(=O)O.OO.OO.[Nb]
[22]
  T/C: 93 % of control
[23]
  T/C: 98 % of control
[24]
  T/C: 87 % of control

## COc1ccc(O)cc1C
[25]
  T/C: 96 % of control
endpoint: mean survival time, dose: 200.0 mg/kg/injection, schedule: Q01DX009 (ip), vehicle: other
  T/C: 102 % of control
endpoint: mean survival time, dose: 400.0 mg/kg/injection, schedule: Q01DX009 (ip), vehicle: other
  T/C: 98 % of control

## N=C(N)SC(c1ccccc1)c1ccccc1
endpoint: mean survival time, dose: 25.0 mg/kg/injection, schedule: Q04DX003 (ip), vehicle: saline
  T/C: 100 % of control
endpoint: mean survival time, dose: 50.0 mg/kg/injection, schedule: Q04DX003 (ip), vehicle: saline
  T/C: 94 % of control
[5]
  T/C: 102 % of control

## Nc1cccc(OCCOc2ccccc2[N+](=O)[O-])c1
endpoint: mean survival time, dose: 100.0 mg/kg/injection, schedule: Q01DX001 (ip), vehicle: Klucel (hydroxypropylcellulose) (HPC)
  T/C: 93 % of control
endpoint: mean survival time, dose: 200.0 mg/kg/injection, schedule: Q01DX001 (ip), vehicle: Klucel (hydroxypropylcellulose) (HPC)
  T/C: 90 % of control
endpoint: mean survival time, dose: 400.0 mg/kg/injection, schedule: Q01DX001 (ip), vehicle: Klucel (hydroxypropylcellulose) (HPC)
  T/C: 90 % of control

## CCCCCCCCCc1ccc(OCCOCCOCCOCCOCCOCCOCCCS(=O)(=O)[O-])cc1.CCCCCCCCCc1ccc(OCCOCCOCCOCCOCCOCCOCCCS(=O)(=O)[O-])cc1.NC1CCCCC1N.[Pt+4]
endpoint: median survival time, dose: 3.12 mg/kg/injection, schedule: Q04DX003 (ip), vehicle: saline with Tween-80
  T/C: 98 % of control
endpoint: median survival time, dose: 6.25 mg/kg/injection, schedule: Q04DX003 (ip), vehicle: saline with Tween-80
  T/C: 98 % of control
endpoint: median survival time, dose: 12.5 mg/kg/injection, schedule: Q04DX003 (ip), vehicle: saline with Tween-80
  T/C: 98 % of control
endpoint: median survival time, dose: 25.0 mg/kg/injection, schedule: Q04DX003 (ip), vehicle: saline with Tween-80
  T/C: 95 % of control
endpoint: median survival time, dose: 50.0 mg/kg/injection, schedule: Q04DX003 (ip), vehicle: saline with Tween-80
  T/C: 97 % of control
endpoint: median survival time, dose: 100.0 mg/kg/injection, schedule: Q04DX003 (ip), vehicle: saline with Tween-80
  T/C: 102 % of control
endpoint: median survival time, dose: 200.0 mg/kg/injection, schedule: Q04DX003 (ip), vehicle: saline with Tween-80
  T/C: 103 % of control

## CCOC(=O)CC(Cc1cc(OC)ccc1OC)(C(C)=O)C(C)=O
[22]
  T/C: 100 % of control
[23]
  T/C: 110 % of control
[24]
  T/C: 102 % of control
endpoint: mean survival time, dose: 100.0 mg/kg/injection, schedule: Q01DX009 (ip), vehicle: water
  T/C: 95 % of control
endpoint: mean survival time, dose: 200.0 mg/kg/injection, schedule: Q01DX009 (ip), vehicle: water
  T/C: 114 % of control

## O=C(c1ccccc1)C(C(c1ccccc1)N1CCOCC1)N1CCOCC1 (configuration not stated)
[17]
  T/C: 90 % of control
[20]
  T/C: 96 % of control
[18]
  T/C: 92 % of control
[21]
  T/C: 93 % of control
endpoint: mean survival time, dose: 400.0 mg/kg/injection, schedule: Q04DX003 (ip), vehicle: saline with Tween-80
  T/C: 97 % of control

## COc1ccc(NC(=O)Oc2cc(=O)oc3ccccc23)c(Cl)c1
endpoint: mean survival time, dose: 50.0 mg/kg/injection, schedule: Q01DX009 (ip), vehicle: Klucel (hydroxypropylcellulose) (HPC)
  T/C: 107 % of control
endpoint: mean survival time, dose: 100.0 mg/kg/injection, schedule: Q01DX009 (ip), vehicle: Klucel (hydroxypropylcellulose) (HPC)
  T/C: 96 % of control
endpoint: mean survival time, dose: 200.0 mg/kg/injection, schedule: Q01DX009 (ip), vehicle: Klucel (hydroxypropylcellulose) (HPC)
  T/C: 100 % of control

## O=C1NCC(C2CC2)(C2CC2)O1
[1]
  T/C: 108 % of control
[2]
  T/C: 100 % of control
[3]
  T/C: 100 % of control

## CCCCCCCC/C=C\CCCCCCCCNC(C)=O
[19]
  T/C: 89 % of control
[20]
  T/C: 89 % of control

## Cc1ncc(C[P+](c2ccccc2)(c2ccccc2)c2ccccc2)c(C)c1O
[10]
  T/C: 102 % of control

## Cc1ccc(Nc2ncnc3c2ncn3C2OC(CO)C(O)C2O)cc1 (configuration not stated)
endpoint: mean survival time, dose: 12.5 mg/kg/injection, schedule: Q01DX005 (ip), vehicle: distilled water + Tween-80
  T/C: 94 % of control
[13]
  T/C: 94 % of control
[14]
  T/C: 94 % of control
[15]
  T/C: 96 % of control
[16]
  T/C: 94 % of control

## c1ccc(CC2=NCCO2)cc1
[5]
  T/C: 100 % of control
[7]
  T/C: 95 % of control
[9]
  T/C: 98 % of control

## CN=NNc1ccc(C(=O)NC(C)C)cc1
endpoint: mean survival time, dose: 25.0 mg/kg/injection, schedule: Q01DX009 (ip), vehicle: DMSO
  T/C: 112 % of control
endpoint: mean survival time, dose: 25.0 mg/kg/injection, schedule: Q01DX009 (ip), vehicle: other
  T/C: 110 % of control
endpoint: mean survival time, dose: 50.0 mg/kg/injection, schedule: Q01DX009 (ip), vehicle: DMSO
  T/C: 114 % of control
endpoint: mean survival time, dose: 50.0 mg/kg/injection, schedule: Q01DX009 (ip), vehicle: other
  T/C: 102 % of control and 109 % of control
[25]
  T/C: 107 % of control
endpoint: mean survival time, dose: 200.0 mg/kg/injection, schedule: Q01DX009 (ip), vehicle: DMSO
  T/C: 86 % of control

— PubChem BioAssay AID256 (DTP/NCI, 2004)
